Test results as given in the NIST ThermoML archive (doi:10.1016/j.jct.2017.07.008).
± gives the expanded uncertainty stated by the source.

Test: refractive index (Na D-line) (dimensionless)
Details: 100 kPa, Liquid, Standard Abbe refractometry

OCc1cccs1 [2-thiophenemethanol]
Details	refractive index
283.15 K	1.5713 ± 0.0004
285.65 K	1.5701 ± 0.0004
288.15 K	1.569 ± 0.0004
290.65 K	1.5679 ± 0.0004
293.15 K	1.5668 ± 0.0004
295.65 K	1.5657 ± 0.0004
298.15 K	1.5646 ± 0.0004
300.65 K	1.5635 ± 0.0004
303.15 K	1.5624 ± 0.0004
305.65 K	1.5613 ± 0.0004
308.15 K	1.5602 ± 0.0004
310.65 K	1.559 ± 0.0004
313.15 K	1.5579 ± 0.0004
315.65 K	1.5568 ± 0.0004
318.15 K	1.5557 ± 0.0004
320.65 K	1.5546 ± 0.0004
323.15 K	1.5535 ± 0.0004
325.65 K	1.5524 ± 0.0004
328.15 K	1.5513 ± 0.0004
330.65 K	1.5502 ± 0.0004
333.15 K	1.5491 ± 0.0004
335.65 K	1.548 ± 0.0004
338.15 K	1.5468 ± 0.0004

O=Cc1cccs1 [2-thiophenealdehyde]
Details	refractive index
283.15 K	1.5924 ± 0.0004
285.65 K	1.5912 ± 0.0004
288.15 K	1.59 ± 0.0004
290.65 K	1.5888 ± 0.0004
293.15 K	1.5876 ± 0.0004
295.65 K	1.5864 ± 0.0004
298.15 K	1.5853 ± 0.0004
300.65 K	1.5841 ± 0.0004
303.15 K	1.5829 ± 0.0004
305.65 K	1.5817 ± 0.0004
308.15 K	1.5805 ± 0.0004
310.65 K	1.5793 ± 0.0004
313.15 K	1.5781 ± 0.0004
315.65 K	1.5769 ± 0.0004
318.15 K	1.5757 ± 0.0004
320.65 K	1.5745 ± 0.0004
323.15 K	1.5733 ± 0.0004
325.65 K	1.5721 ± 0.0004
328.15 K	1.5709 ± 0.0004
330.65 K	1.5697 ± 0.0004
333.15 K	1.5685 ± 0.0004
335.65 K	1.5674 ± 0.0004
338.15 K	1.5662 ± 0.0004
